Results from PubChem BioAssay AID1259407 (Chemical Carcinogenesis Research Information System (CCRIS), 2018).
Activity calls are given as the source filed them. The rule behind the calls is not given here.

System: CCRIS mutagenicity, Ames/micronucleus/aberration tests
Assay: CCRIS mutagenicity studies
[1] = Test System: AMES SALMONELLA TYPHIMURIUM, Strain/Indicator: TA97, Metabolic Activation: NONE, Method: PREINCUBATION

Compound: CN(C)C(=O)Nc1cccc(C(F)(F)F)c1
- mutagenic call (End Point: IN VITRO CHROMOSOMAL ABERRATIONS, Test System: CHO-LB CELLS, Metabolic Activation: NONE): inactive; negative
- mutagenic call (End Point: IN VITRO CHROMOSOMAL ABERRATIONS, Test System: CHO-LB CELLS, Metabolic Activation: RAT, LIVER, S-9, AROCLOR 1254): inactive; negative
- mutagenic call (Test System: AMES SALMONELLA TYPHIMURIUM, Strain/Indicator: TA97, Metabolic Activation: HAMSTER, LIVER, S-9, AROCLOR 1254 (10 OR 30%), Method: PREINCUBATION): inactive; negative
- mutagenic call [1]: inactive; negative
- mutagenic call (Test System: AMES SALMONELLA TYPHIMURIUM, Strain/Indicator: TA97, Metabolic Activation: RAT, LIVER, S-9, AROCLOR 1254 (10 OR 30%), Method: PREINCUBATION): inactive; negative
- mutagenic call (Test System: AMES SALMONELLA TYPHIMURIUM, Strain/Indicator: TA98, Metabolic Activation: HAMSTER, LIVER, S-9, AROCLOR 1254 (10 OR 30%), Method: PREINCUBATION): inactive; negative
- mutagenic call (Test System: AMES SALMONELLA TYPHIMURIUM, Strain/Indicator: TA98, Metabolic Activation: NONE, Method: PREINCUBATION): inactive; negative
- mutagenic call (Test System: AMES SALMONELLA TYPHIMURIUM, Strain/Indicator: TA98, Metabolic Activation: RAT, LIVER, S-9, AROCLOR 1254 (10 OR 30%), Method: PREINCUBATION): inactive; negative
- mutagenic call (Test System: AMES SALMONELLA TYPHIMURIUM, Strain/Indicator: TA100, Metabolic Activation: HAMSTER, LIVER, S-9, AROCLOR 1254 (10 OR 30%), Method: PREINCUBATION): inactive; negative
- mutagenic call (Test System: AMES SALMONELLA TYPHIMURIUM, Strain/Indicator: TA100, Metabolic Activation: NONE, Method: PREINCUBATION): inactive; negative
- mutagenic call (Test System: AMES SALMONELLA TYPHIMURIUM, Strain/Indicator: TA100, Metabolic Activation: RAT, LIVER, S-9, AROCLOR 1254 (10 OR 30%), Method: PREINCUBATION): inactive; negative
- mutagenic call (Test System: AMES SALMONELLA TYPHIMURIUM, Strain/Indicator: TA1535, Metabolic Activation: HAMSTER, LIVER, S-9, AROCLOR 1254 (10 OR 30%), Method: PREINCUBATION): inactive; negative
- mutagenic call (Test System: AMES SALMONELLA TYPHIMURIUM, Strain/Indicator: TA1535, Metabolic Activation: NONE, Method: PREINCUBATION): inactive; negative
- mutagenic call (Test System: AMES SALMONELLA TYPHIMURIUM, Strain/Indicator: TA1535, Metabolic Activation: RAT, LIVER, S-9, AROCLOR 1254 (10 OR 30%), Method: PREINCUBATION): inactive; negative
- mutagenic call (Test System: AMES SALMONELLA TYPHIMURIUM, Strain/Indicator: TA1535, Metabolic Activation: RAT, LIVER, S-9, Method: STANDARD PLATE): active; positive
- mutagenic call (Test System: E. COLI, Strain/Indicator: WP2 UVRA, Metabolic Activation: HAMSTER, LIVER, S-9, AROCLOR 1254, Method: STANDARD PLATE): inactive; negative
- mutagenic call (Test System: E. COLI, Strain/Indicator: WP2 UVRA, Metabolic Activation: HAMSTER, LIVER, S-9, Method: STANDARD PLATE): inactive; negative
- mutagenic call (Test System: E. COLI, Strain/Indicator: WP2 UVRA, Metabolic Activation: MOUSE, LIVER, S-9, AROCLOR 1254, Method: STANDARD PLATE): inactive; negative
- mutagenic call (Test System: E. COLI, Strain/Indicator: WP2 UVRA, Metabolic Activation: MOUSE, LIVER, S-9, Method: STANDARD PLATE): inactive; negative
- mutagenic call (Test System: E. COLI, Strain/Indicator: WP2 UVRA, Metabolic Activation: NONE, Method: STANDARD PLATE): inactive; negative
- mutagenic call (Test System: E. COLI, Strain/Indicator: WP2 UVRA, Metabolic Activation: RAT, LIVER, S-9, AROCLOR 1254, Method: STANDARD PLATE): inactive; negative
- mutagenic call (Test System: E. COLI, Strain/Indicator: WP2 UVRA, Metabolic Activation: RAT, LIVER, S-9, Method: STANDARD PLATE): inactive; negative

Compound: OCl
- mutagenic call (End Point: IN VIVO MICRONUCLEUS, Test System: BONE MARROW POLYCHROMATIC ERYTHROCYTES, Species: MOUSE, Strain/Sex: DDY/MALE, Route: IP): inactive; negative
- mutagenic call [1]: inactive; negative
- mutagenic call (Test System: AMES SALMONELLA TYPHIMURIUM, Strain/Indicator: TA97, Metabolic Activation: RAT, LIVER, S-9, AROCLOR 1254, Method: PREINCUBATION): inactive; negative
- mutagenic call (Test System: AMES SALMONELLA TYPHIMURIUM, Strain/Indicator: TA98, Metabolic Activation: NONE, Method: FLUCTUATION TEST): inactive; negative
- mutagenic call (Test System: AMES SALMONELLA TYPHIMURIUM, Strain/Indicator: TA98, Metabolic Activation: NONE, Method: STANDARD PLATE): inactive; negative
- mutagenic call (Test System: AMES SALMONELLA TYPHIMURIUM, Strain/Indicator: TA98, Metabolic Activation: RAT, LIVER, S-9, AROCLOR 1254, Method: STANDARD PLATE): inactive; negative
- mutagenic call (Test System: AMES SALMONELLA TYPHIMURIUM, Strain/Indicator: TA100, Metabolic Activation: NONE, Method: FLUCTUATION TEST): inactive; negative
- mutagenic call (Test System: AMES SALMONELLA TYPHIMURIUM, Strain/Indicator: TA100, Metabolic Activation: NONE, Method: STANDARD PLATE): inactive; negative
- mutagenic call (Test System: AMES SALMONELLA TYPHIMURIUM, Strain/Indicator: TA100, Metabolic Activation: RAT, LIVER, S-9, AROCLOR 1254, Method: STANDARD PLATE): inactive; negative
- mutagenic call (Test System: AMES SALMONELLA TYPHIMURIUM, Strain/Indicator: TA102, Metabolic Activation: NONE, Method: FLUCTUATION TEST): inactive; negative
- mutagenic call (Test System: AMES SALMONELLA TYPHIMURIUM, Strain/Indicator: TA102, Metabolic Activation: NONE, Method: PREINCUBATION): inactive; negative
- mutagenic call (Test System: AMES SALMONELLA TYPHIMURIUM, Strain/Indicator: TA102, Metabolic Activation: RAT, LIVER, S-9, AROCLOR 1254, Method: PREINCUBATION): inactive; negative
- mutagenic call (Test System: AMES SALMONELLA TYPHIMURIUM, Strain/Indicator: TA1535, Metabolic Activation: NONE, Method: STANDARD PLATE): inactive; negative
- mutagenic call (Test System: AMES SALMONELLA TYPHIMURIUM, Strain/Indicator: TA1535, Metabolic Activation: RAT, LIVER, S-9, AROCLOR 1254, Method: STANDARD PLATE): inactive; negative
- mutagenic call (Test System: AMES SALMONELLA TYPHIMURIUM, Strain/Indicator: TA1537, Metabolic Activation: NONE, Method: STANDARD PLATE): inactive; negative
- mutagenic call (Test System: AMES SALMONELLA TYPHIMURIUM, Strain/Indicator: TA1537, Metabolic Activation: RAT, LIVER, S-9, AROCLOR 1254, Method: STANDARD PLATE): inactive; negative
- mutagenic call (Test System: AMES SALMONELLA TYPHIMURIUM, Strain/Indicator: TA1538, Metabolic Activation: NONE, Method: STANDARD PLATE): inactive; negative
- mutagenic call (Test System: AMES SALMONELLA TYPHIMURIUM, Strain/Indicator: TA1538, Metabolic Activation: RAT, LIVER, S-9, AROCLOR 1254, Method: STANDARD PLATE): inactive; negative
- mutagenic call (Test System: CHINESE HAMSTER OVARY, Strain/Indicator: CHO-K1-BH4 (HGPRT), Metabolic Activation: NONE, Method: STANDARD PLATE): inactive; negative
- mutagenic call (Test System: UDS RODENT HEPATOCYTES, Strain/Indicator: THY INCORP (NON-S-PHASE), Metabolic Activation: NONE, Method: LIQUID SCINTILLATION COUNTING): inactive; negative
